The values that follow come from ChEMBL document CHEMBL3425402, “Discovery of β-D-2'-deoxy-2'-α-fluoro-4'-α-cyano-5-aza-7,9-dideaza adenosine as a potent nucleoside inhibitor of respiratory syncytial virus with excellent selectivity over mitochondrial RNA and DNA polymerases” (Bioorg Med Chem Lett, 2015).

Each structure is given as a SMILES string.

The target in data set [1] is DNA-directed RNA polymerase, mitochondrial (Homo sapiens) (UniProt O00411). Nature of the data set: Inhibition of human mitochondrial RNA polymerase using 5'-32P-R12/D18 as RNA/DNA template assessed as single nucleotide incorporation rate at 500 uM after 0.17 to 30 mins by PAGE analysis.
The nature of data set [2]: Antiviral activity against RSV A2 infected in human Hep2 cells assessed as protection against virus-induced cytopathic effect after 4 days by Cell-Titer Glo assay. Type of data set: functional, cell-based. The settings on record: human respiratory syncytial virus, HEp-2, 96 h.
Data set [3] is described as follows: Inhibition of RSV A2 RNA-dependent RNA polymerase expressed in human Hep2 cells using ATP, GTP, UTP, CTP and 1.5 uCi [alpha-32P] NTP as substrate assessed as reduction of total radiolabled transcript after 90 mins by agarose gel electrophoresis. Details: species or system Human respiratory syncytial virus A2. The settings on record: hep-2.
Data set [4] deals with DNA polymerase subunit gamma-1/gamma-2 (Homo sapiens) (UniProt P54098+Q9UHN1). The data set can be described thus: Inhibition of human mitochondrial DNA polymerase gamma large subunit/DNA polymerase gamma accessory subunit using 32P-D19/D36 as DNA primer/template assessed as single nucleotide incorporation rate at 100 uM after 5 to 90 mins by PAGE analysis relative to thymidine NTP. Type of data set: protein assay.

Data set [5] can be described thus: Cytotoxicity against human MT4 cells assessed as cell viability after 5 days by Cell-Titer Glo assay. Type of data set: cell-based.

DNA-directed RNA polymerase, mitochondrial (Homo sapiens), sequence (O00411 whole entry): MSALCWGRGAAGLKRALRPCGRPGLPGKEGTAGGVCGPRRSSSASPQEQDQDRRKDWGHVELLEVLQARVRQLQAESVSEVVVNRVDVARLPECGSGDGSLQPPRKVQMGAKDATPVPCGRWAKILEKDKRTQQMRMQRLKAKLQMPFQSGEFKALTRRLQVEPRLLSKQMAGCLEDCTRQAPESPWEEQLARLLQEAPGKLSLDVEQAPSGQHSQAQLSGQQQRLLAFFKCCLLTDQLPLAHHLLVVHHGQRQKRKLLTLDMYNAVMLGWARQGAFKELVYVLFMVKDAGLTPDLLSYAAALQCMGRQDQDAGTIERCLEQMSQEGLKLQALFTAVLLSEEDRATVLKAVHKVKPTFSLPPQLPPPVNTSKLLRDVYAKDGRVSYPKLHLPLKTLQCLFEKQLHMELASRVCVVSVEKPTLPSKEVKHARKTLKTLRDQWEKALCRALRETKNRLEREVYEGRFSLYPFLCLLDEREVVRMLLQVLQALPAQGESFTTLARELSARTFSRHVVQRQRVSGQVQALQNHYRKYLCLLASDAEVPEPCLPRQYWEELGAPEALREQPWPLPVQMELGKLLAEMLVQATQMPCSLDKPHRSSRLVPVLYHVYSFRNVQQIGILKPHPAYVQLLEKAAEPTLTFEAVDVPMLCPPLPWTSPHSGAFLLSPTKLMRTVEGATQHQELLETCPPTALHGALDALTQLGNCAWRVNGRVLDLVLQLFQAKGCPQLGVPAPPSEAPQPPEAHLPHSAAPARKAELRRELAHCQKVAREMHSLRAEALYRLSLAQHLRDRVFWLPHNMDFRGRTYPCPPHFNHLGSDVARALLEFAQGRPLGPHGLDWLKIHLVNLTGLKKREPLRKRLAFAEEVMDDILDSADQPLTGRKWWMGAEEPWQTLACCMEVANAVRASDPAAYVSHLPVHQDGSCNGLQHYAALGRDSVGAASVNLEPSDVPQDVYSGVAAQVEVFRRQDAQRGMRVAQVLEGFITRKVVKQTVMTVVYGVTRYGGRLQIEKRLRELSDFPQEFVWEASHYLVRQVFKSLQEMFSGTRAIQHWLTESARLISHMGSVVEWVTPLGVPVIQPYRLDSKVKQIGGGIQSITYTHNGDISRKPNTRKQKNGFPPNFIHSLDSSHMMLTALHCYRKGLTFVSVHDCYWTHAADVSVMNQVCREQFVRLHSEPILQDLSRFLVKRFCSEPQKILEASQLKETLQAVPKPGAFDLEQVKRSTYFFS
DNA polymerase subunit gamma-1/gamma-2 (Homo sapiens), sequence (P54098 whole entry, looked up): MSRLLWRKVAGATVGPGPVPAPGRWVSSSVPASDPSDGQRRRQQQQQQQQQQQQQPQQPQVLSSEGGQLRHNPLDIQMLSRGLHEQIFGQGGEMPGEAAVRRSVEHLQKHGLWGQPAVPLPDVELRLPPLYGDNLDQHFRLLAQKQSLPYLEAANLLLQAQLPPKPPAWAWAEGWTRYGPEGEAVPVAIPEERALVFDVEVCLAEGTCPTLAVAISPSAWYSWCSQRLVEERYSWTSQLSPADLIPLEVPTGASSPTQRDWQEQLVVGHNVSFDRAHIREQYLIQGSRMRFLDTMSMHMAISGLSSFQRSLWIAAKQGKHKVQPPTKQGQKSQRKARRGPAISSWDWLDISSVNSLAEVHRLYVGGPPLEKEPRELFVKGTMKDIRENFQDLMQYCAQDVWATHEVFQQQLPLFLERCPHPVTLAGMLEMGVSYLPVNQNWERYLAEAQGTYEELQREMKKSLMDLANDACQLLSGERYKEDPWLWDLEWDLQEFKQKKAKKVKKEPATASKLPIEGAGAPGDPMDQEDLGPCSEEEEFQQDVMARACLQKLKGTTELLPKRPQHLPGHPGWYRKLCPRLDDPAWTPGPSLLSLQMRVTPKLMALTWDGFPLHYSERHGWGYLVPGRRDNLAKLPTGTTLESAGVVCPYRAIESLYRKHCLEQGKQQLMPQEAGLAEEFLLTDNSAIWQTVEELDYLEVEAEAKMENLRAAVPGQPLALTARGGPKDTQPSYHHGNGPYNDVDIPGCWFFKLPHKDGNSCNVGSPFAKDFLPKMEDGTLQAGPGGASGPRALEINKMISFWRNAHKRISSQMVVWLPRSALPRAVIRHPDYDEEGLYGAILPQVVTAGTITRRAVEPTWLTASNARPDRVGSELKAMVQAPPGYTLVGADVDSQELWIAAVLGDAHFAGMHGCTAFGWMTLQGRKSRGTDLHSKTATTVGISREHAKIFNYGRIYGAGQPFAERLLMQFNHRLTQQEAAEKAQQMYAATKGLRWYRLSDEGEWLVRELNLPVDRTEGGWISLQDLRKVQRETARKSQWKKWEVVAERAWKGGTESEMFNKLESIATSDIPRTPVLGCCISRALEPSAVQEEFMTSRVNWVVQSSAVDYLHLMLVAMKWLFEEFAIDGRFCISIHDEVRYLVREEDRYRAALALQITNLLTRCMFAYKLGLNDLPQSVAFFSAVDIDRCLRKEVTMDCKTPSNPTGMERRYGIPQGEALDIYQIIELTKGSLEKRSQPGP
DNA polymerase subunit gamma-1/gamma-2 (Homo sapiens), sequence (Q9UHN1 whole entry, looked up): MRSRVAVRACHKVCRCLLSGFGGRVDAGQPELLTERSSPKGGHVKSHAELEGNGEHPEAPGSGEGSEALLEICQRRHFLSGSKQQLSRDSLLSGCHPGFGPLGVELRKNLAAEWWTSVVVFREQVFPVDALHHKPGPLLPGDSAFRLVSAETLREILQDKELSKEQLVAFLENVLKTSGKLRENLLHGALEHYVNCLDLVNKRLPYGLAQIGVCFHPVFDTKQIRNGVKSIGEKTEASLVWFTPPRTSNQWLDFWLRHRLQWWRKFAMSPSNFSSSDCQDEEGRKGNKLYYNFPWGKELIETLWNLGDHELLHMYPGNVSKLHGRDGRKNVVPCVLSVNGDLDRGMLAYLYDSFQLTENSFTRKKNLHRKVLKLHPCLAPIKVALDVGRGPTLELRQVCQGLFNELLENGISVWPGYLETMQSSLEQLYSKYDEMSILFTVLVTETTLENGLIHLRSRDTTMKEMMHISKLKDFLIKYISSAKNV

The inhibition is the relative decrease from the control value, in per cent. For orientation: EC50 means the concentration that produces a half-maximal response. As a reminder, the IC50 is the concentration that inhibits the measured activity by half. A word on the CC50: it is the concentration giving 50% cytotoxicity. In the case of `C=C[C@]1(CO)O[C@@H](n2ccc(N)nc2=O)[C@H](F)[C@@H]1O`, the results for the inhibition in data set [1] and in data set [4] were 1.2% and 4.9%, respectively. The EC50 in data set [2] is more than 50 µM. Further, the IC50 in data set [3] came to 600 nM. In data set [5], the cytotoxic concentration (CC50) at 120 h was more than 57 µM.

Turning to `C=C[C@]1(CO)O[C@@H](n2cnc3c(=O)[nH]c(N)nc32)[C@H](F)[C@@H]1O`, the inhibition in data set [1] and in data set [4] was 1% in each case. Moreover, the EC50 in data set [2] came to 17 µM. Further, the IC50 in data set [3] was 12000 nM. Besides, the CC50 at 120 h in data set [5] worked out at 46 µM.

In the case of `C#C[C@]1(CO)O[C@@H](n2cnc3c(=O)[nH]c(N)nc32)[C@H](F)[C@@H]1O`, the values for the inhibition in data set [1] and in data set [4] were 18% and 5%, respectively. Also, in data set [2], the EC50 turned out to be 26 µM. The IC50 in data set [3] was 1800 nM. In addition, the CC50 at 120 h in data set [5] was determined as 39 µM.

With `[N-]=[N+]=N[C@]1(CO)O[C@@H](n2ccc(N)nc2=O)[C@H](F)[C@@H]1O`, the figures for the inhibition in data set [1] and in data set [4] were 3% and 7%, respectively. In addition, the concentration for a half-maximal effect (EC50) in data set [2] was determined as 3.5 µM. Further, the IC50 in data set [3] was determined as 300 nM. Further, in data set [5], the CC50 at 120 h stood at 23 µM.

For the compound `Nc1ccn([C@@H]2O[C@H](CO)[C@@H](O)[C@H]2F)c(=O)n1`, the values for the inhibition in data set [1] and in data set [4] were 20% and 17%, respectively. Moreover, the half-maximal effective concentration (EC50) in data set [2] is more than 200 µM. The IC50 in data set [3] stood at 1800 nM. Also, the CC50 at 120 h in data set [5] is 3.8 µM.

As to `O=c1[nH]c(=O)n([C@@H]2O[C@H](CO)[C@@H](O)[C@@H]2F)cc1I`, in data set [4], the inhibition stood at 99%.

Take `O=c1ccn([C@@H]2O[C@H](CO)[C@@H](O)[C@H]2F)c(=O)[nH]1`: the results for the inhibition in data set [1] and in data set [4] were 37% and 11%, respectively. Further, the EC50 in data set [2] was more than 100 µM. For the same compound, the IC50 in data set [3] was 3500 nM.

For `N#C[C@]1(CO)O[C@@H](c2ccc3c(N)ncnn23)[C@H](F)[C@@H]1O`, the inhibition in data set [1] and in data set [4] was less than 0.1% each time. Further, the EC50 in data set [2] turned out to be 2 µM. The IC50 in data set [3] was 86 nM. The CC50 at 120 h in data set [5] is more than 114 µM.

Regarding `CC(C)C(=O)OC[C@@]1(N=[N+]=[N-])O[C@@H](n2ccc(N)nc2=O)[C@H](OC(=O)C(C)C)[C@@H]1OC(=O)C(C)C`, the inhibition in data set [1] came out at 112%.

On to `CC[C@]1(CO)O[C@@H](c2ccc3c(N)ncnn23)[C@H](F)[C@@H]1O`, for which the inhibition in data set [1] worked out at 0.1%; in data set [4] it was 5.7%. Besides, the concentration giving a half-maximal response (EC50) in data set [2] came out at 41 µM. For the same compound, the IC50 in data set [3] is 500 nM. The CC50 at 120 h in data set [5] was more than 114 µM.

For the compound `Nc1ncnn2c([C@@H]3O[C@H](CO)[C@@H](O)[C@H]3F)ccc12`, the inhibition turned out to be 22% in data set [1] and 2.5% in data set [4]. Further, the EC50 in data set [2] is more than 100 µM. In addition, the IC50 in data set [3] is 600 nM. Further, the CC50 at 120 h in data set [5] was 26 µM.

`N#C[C@]1(CO)O[C@@H](n2cnc3c(=O)[nH]c(N)nc32)[C@H](F)[C@@H]1O`: the inhibition in data set [1] was 0%; in data set [4] it was 3%. Moreover, in data set [2], the EC50 was determined as 10 µM. Also, the IC50 in data set [3] was determined as 2600 nM. The CC50 at 120 h in data set [5] is 24 µM.

With `Nc1ccn([C@@H]2O[C@@](CO)(CCl)[C@@H](O)[C@H]2F)c(=O)n1` [ALS-8112], the inhibition in data set [1] came out at 0%; in data set [4], 41%. In data set [2], the EC50 was 0.92 µM. The IC50 in data set [3] stood at 1000 nM. Moreover, in data set [5], the CC50 at 120 h amounted to 21 µM.

`C=C[C@]1(CO)O[C@@H](c2ccc3c(N)ncnn23)[C@H](F)[C@@H]1O`: the inhibition in data set [1] came to 2.9%; in data set [4], 10%. The half-maximal effective concentration (EC50) in data set [2] came out at 10 µM. Also, the concentration for half-maximal inhibition (IC50) in data set [3] came out at 600 nM. Moreover, the CC50 at 120 h in data set [5] was more than 114 µM.

As for `Nc1ncnc2c1ncn2[C@@H]1O[C@H](CO)[C@@H](O)[C@H]1F` [2'-BETA-FLUORO-2',3'-DEOXYADENOSINE], the inhibition in data set [1] came out at 24%; in data set [4], 8%. For the same compound, in data set [2], the half-maximal effective concentration (EC50) was more than 50 µM. Moreover, the IC50 in data set [3] stood at 7700 nM.

For the compound `Nc1nc(O)c2ncn([C@@H]3O[C@H](CO)[C@@H](O)[C@H]3F)c2n1`, the inhibition in data set [1] is 21%; in data set [4], 34%. In addition, the EC50 in data set [2] is more than 200 µM. For the same compound, the IC50 in data set [3] was determined as 6600 nM.

As for `CC[C@]1(CO)O[C@@H](n2ccc(N)nc2=O)[C@H](F)[C@@H]1O`, the inhibition in data set [1] was 0%; in data set [4], 6%. The EC50 in data set [2] came out at 8 µM. The IC50 in data set [3] was determined as 600 nM. Further, the CC50 at 120 h in data set [5] is more than 57 µM.

Take `Nc1nc2c(ncn2[C@@H]2O[C@H](CO)[C@@H](O)[C@H]2F)c(=O)[nH]1`: the CC50 at 120 h in data set [5] was more than 49 µM.
